Patent US20110151018A1, “METHODS OF INSECT CONTROL” (BRANDEIS UNIVERSITY, priority 2008, published 2011)

Experiments:
D. melanogaster adults = experiment: Vapor avoidance assay (choice between AITC tube and DMSO tube); format: in vivo, Drosophila melanogaster; settings: dTrpA1 loss-of-function mutants, P<0.0001
Procedure: Vapor avoidance assay: One to three day-old flies were collected, knocked out by CO2, and kept on a fresh food at least 24 hrs before use. Choice apparatus was as previously described (3). ˜200 mM AITC was prepared daily by diluting 1 part of 99% AITC (Sigma) in 49 parts of DMSO. 1 microliter of diluted AITC was placed on the tip of 16-gauge needle (plugged by bending), inserted in bottom of a capped 14-ml polypropylene tube and allowed to diffuse for 2 min prior to use. 1 microliter of DMSO alone was placed on a needle tip inserted into the other 14-ml tube. During diffusion period, flies were transferred to the apparatus held within the fly elevator. After diffusion period, AITC tube was uncapped and inserted one opening of the choice chamber, other opening contained vehicle only tube. […] AITC and vehicle only sides were alternated to offset any bias caused by possible asymmetric condition. Avoidance index was calculated by subtracting the fraction of flies in AITC tube from fraction in vehicle alone tube.

D. melanogaster flies [1] = experiment: Proboscis extension response (PER) assay, solution contact with labellum; format: in vivo, Drosophila melanogaster
Text: Proboscis extension response (PER) assay: As reactive electrophiles are commonly encountered as defensive agents present in food sources, we also examined AITC sensing in the context of fly feeding. Flies aged two to seven days were starved on wet Kim wipes overnight, knocked out on ice, and glued (Elmer's glue) by their wings on a glass slide. Flies recovered in a humidified chamber at least for 2 hrs at room temperature prior to assay. At the beginning of PER assay, the fly was satiated with water. […] When the proboscis was extended and maintained the contact for 2-3 sec with the presented food, it was scored as 1. If the contact is only brief or proboscis stuttered on the tastant, 0.5 was given as the score. When the proboscis never made contact within 5 sec, 0 was given. Each fly was offered five times per experiment, and between offerings water was given to satiation. As AITC was always accepted on first offering, frequency of PER was calculated as a fraction obtained from the […] offerings (sum of four scores divided by 4). For leg only PER assays, the procedures are same as above except that the flies tested were not allowed to contact with the offered food with proboscis, with either 12% sucrose or a mixture of 2 mM AITC/12% sucrose was offered ten times.

D. melanogaster flies [2] = experiment: Leg only PER assay; format: in vivo, Drosophila melanogaster; settings: 2 mM AITC/12% sucrose
Text: Proboscis extension response (PER) assay: As reactive electrophiles are commonly encountered as defensive agents present in food sources, we also examined AITC sensing in the context of fly feeding. Flies aged two to seven days were starved on wet Kim wipes overnight, knocked out on ice, and glued (Elmer's glue) by their wings on a glass slide. Flies recovered in a humidified chamber at least for 2 hrs at room temperature prior to assay. At the beginning of PER assay, the fly was satiated with water. Next, solution containing tastants was presented to the fly as a liquid ball on a pipette tip, touching the forelegs only. When the proboscis was extended and maintained the contact for 2-3 sec with the presented food, it was scored as 1. If the contact is only brief or proboscis stuttered on the tastant, 0.5 was given as the score. When the proboscis never made contact within 5 sec, 0 was given. Each fly was offered five times per experiment, and between offerings water was given to satiation. As AITC was always accepted on first offering, frequency of PER was calculated as a fraction obtained from the […] offerings (sum of four scores divided by 4). […]

dTRPA1 [3] = molecular target: T1, dTRPA1 (Drosophila melanogaster, UniProt Q7Z020); experiment: Agonist-evoked dTRPA1 currents, two-electrode voltage clamping on Xenopus laevis oocytes; format: cell-based; settings: for activation of wild-type dTRPA1 channel currents: 100 μM, applied 60-80 sec, currents at -60 and +60 mV
T1 sequence (Q7Z020 1-1197): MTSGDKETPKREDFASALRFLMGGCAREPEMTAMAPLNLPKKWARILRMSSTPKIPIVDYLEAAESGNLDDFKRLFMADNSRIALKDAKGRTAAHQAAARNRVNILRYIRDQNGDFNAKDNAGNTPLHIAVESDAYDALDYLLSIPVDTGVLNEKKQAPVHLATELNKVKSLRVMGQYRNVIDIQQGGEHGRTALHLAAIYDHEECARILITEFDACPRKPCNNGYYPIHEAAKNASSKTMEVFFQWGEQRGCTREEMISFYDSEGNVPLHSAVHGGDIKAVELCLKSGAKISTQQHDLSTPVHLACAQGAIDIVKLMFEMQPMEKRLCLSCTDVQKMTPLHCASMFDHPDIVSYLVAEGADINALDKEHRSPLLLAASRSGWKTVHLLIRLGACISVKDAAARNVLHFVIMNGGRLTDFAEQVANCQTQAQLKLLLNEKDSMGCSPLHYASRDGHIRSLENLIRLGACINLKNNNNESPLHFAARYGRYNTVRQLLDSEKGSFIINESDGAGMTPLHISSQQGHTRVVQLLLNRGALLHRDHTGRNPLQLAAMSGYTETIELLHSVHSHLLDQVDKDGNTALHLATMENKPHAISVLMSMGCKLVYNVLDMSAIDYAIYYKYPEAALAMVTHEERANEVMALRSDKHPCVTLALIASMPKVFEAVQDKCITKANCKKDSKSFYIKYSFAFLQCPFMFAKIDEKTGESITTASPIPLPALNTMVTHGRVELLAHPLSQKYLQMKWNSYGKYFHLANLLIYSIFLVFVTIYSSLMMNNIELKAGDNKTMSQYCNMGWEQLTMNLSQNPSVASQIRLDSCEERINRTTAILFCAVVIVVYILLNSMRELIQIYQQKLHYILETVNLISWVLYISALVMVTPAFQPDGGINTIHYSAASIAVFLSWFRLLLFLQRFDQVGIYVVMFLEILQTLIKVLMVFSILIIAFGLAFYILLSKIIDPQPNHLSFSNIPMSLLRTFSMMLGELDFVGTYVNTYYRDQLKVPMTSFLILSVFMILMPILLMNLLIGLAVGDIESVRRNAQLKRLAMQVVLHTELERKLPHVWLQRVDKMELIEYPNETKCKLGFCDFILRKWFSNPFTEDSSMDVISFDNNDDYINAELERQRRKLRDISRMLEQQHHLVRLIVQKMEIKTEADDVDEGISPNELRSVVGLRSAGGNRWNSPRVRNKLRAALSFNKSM
Procedure: (§1) Two-electrode voltage clamping on Xenopus laevis oocytes: Agonist-evoked dTRPA1 currents were recorded as previously described (52), with the following modifications. Agonists of interest were added to the oocyte perfusion buffer (96 mM NaCl, 1 mM MgCl2, 4 mM KCl, and 5 mM HEPES, pH 7.6). Voltage was initially held at −60 mV, and each 300-ms voltage ramp (−60 mV to 60 mV) per sec was applied to dTRPA1- or AgTRPA1-expressing oocytes during perfusion of agonist-containing buffer. Typical resting membrane potentials of oocytes used were between −25 and −60 mV.

agTRPA1 [4] = experiment: Agonist-evoked agTRPA1 currents, two-electrode voltage clamping on Xenopus laevis oocytes; format: cell-based, Anopheles gambiae; settings: 100 μM
Procedure: as §1

dTRPA1-2C = experiment: AITC-evoked currents of dTRPA1-2C mutant channel in oocytes; format: cell-based, Drosophila melanogaster; settings: 0.1 and 0.5 mM AITC normalized to 1.0 mM, -60 mV
Procedure: as §1
Substitutions of cysteine/lysine residues in dTrpA1 were made by swapping a region of wild type cDNA sequence including codons of cysteine or lysine with mutated cassettes. A pair of mutually complemetary oligonucleotide primers with a desired mutation were prepared, and each of them was paired with upstream or downstream primers for the first two PCR reactions. The resulting two PCR fragments overlap in the mutant primer-annealing region that contains the replaced codons, and served as template for the second PCR reaction amplified only with the upstream and down stream primers. The upstream and down stream primers were designed to be just outside of specific restriction endonuclease target sites that were used to clone the second PCR products back in the wild type dTrpA1 cDNA background sequence. […]

flies = experiment: Ingestion of AITC-laden food over a 60 minute period; format: in vivo, Drosophila; settings: well before the end of the 60 minute assay
Drosophila melanogaster = settings: cited from earlier work
dTRPA1 [5] = molecular target: T1, dTRPA1; experiment: Warmth-evoked currents in dTRPA1-expressing Xenopus laevis oocytes (two electrode voltage clamp); format: cell-based; settings: 50 micromolar Ruthenium Red, -60 mV
Procedure: (§2) Oocyte-positive Xenopus laevis females were obtained from Nasco (Ft. Atkinson, Wis.), and maintained at ˜19° C. with 12 h/12 h dark/light cycles. Ovaries were surgically isolated, and treated with 1.5 mg/ml of collagenase type II (Worthington, Lakewood, N.J.) for 90 min, and individual oocytes were defolliculated with a pair of forceps. cRNA was transcribed by mMessage mMachine T3 kit (Ambion, Austin, Tex.) from each cDNA construct, and 50 nl aliquot per oocyte was injected using an automatic Drummond microinjector. (agTRPA1 sequence deposited as Genbank #108 1610.) Membrane potential was maintained at −60 mV by two electrode voltage clamping (TEVC) during warm-activated current recording. Resistance of pulled glass capillary electrodes filled with 3 M KCl was between 0.5 and 1.5 MΩ. Typical resting membrane potentials of oocytes used for current recording were between −25 and -60 mV. Current was recorded at 2 kHz and filtered to 1 kHz with the output filter of the amplifier (OC-725B, Warner instruments, Hamden, Conn.). […] Each voltage step lasted 100 ms following 10 ms holding at −60 mV, and the recorded current in the last 40 ms was averaged to determine the current amplitude at a given voltage.

agTRPA1 [6] = experiment: Warmth-evoked currents in agTRPA1-expressing Xenopus laevis oocytes (two electrode voltage clamp); format: cell-based, Anopheles gambiae; settings: 50 micromolar Ruthenium Red, -60 mV
Procedure: as §2

[7] = system: motor neurons expressing dTRPA1; experiment: Larval neuromuscular junction electrophysiology (EJPs in muscle 6); format: cell-based, Drosophila melanogaster
Text: Larval neuromuscular junction electrophysiology: dTRPA1 was expressed in larval motor neurons using OK371-GAL4, a driver specific for glutamatergic neurons (Aberle et al., 2006) as described (61). In all preparations, the ventral ganglion was dissected away, leaving only motor axons and terminals. Larval muscle 6 (m6) was impaled with a sharp electrode (10-20 MO) containing 3M KCl. Resting membrane potentials were typically between −40 and −50 mV. Saline was perfused over the preparation, then increasing concentrations of cinnemaldehyde applied using a custom built gravity perfusion system. EJP frequency was measured-30 sec after application of each concentration using analysis scripts in Spike 2 (Cambridge Electronic Design, Cambridge, UK).

Compound: C=CCN=C=S [AITC, allyl isothiocyanate]
- AITC vapor avoidance compared to control (D. melanogaster adults): significantly reduced AITC avoidance
- PER upon the first offering (D. melanogaster flies [1]; 12% sucrose containing 2 mM AITC, labellum): All flies also exhibited a PER
- PER triggered by the four subsequent offerings (D. melanogaster flies [1]; control flies, 12% sucrose containing 2 mM AITC, labellum (sucrose alone 95%)): 33%
- PER in response to multiple offerings (D. melanogaster flies [1]; dTrpA1 mutants, sucrose containing AITC): no reduction in PER
- effect on PER elicited by contact of 12% sucrose solution with the legs (D. melanogaster flies [2]): no detectable effects
- activation of wild-type dTRPA1 channel currents (dTRPA1 [3]): robustly activated
- activation of agTRPA1 channel currents (agTRPA1 [4]): robust responses
- AITC sensitivity of dTRPA1-2C compared to wild type dTRPA1 (dTRPA1-2C): significantly decreased AITC sensitivity
- incapacitation of flies on exposure (flies): incapacitated all flies
- toxicity and mutagenicity to the fruit fly (Drosophila melanogaster): toxic and mutagenic

Compound: N.N.N.N.N.N.N.N.N.N.N.N.N.N.[Cl-].[Cl-].[Cl-].[Cl-].[Cl-].[Cl-].[O-2].[O-2].[Ru+3].[Ru+3].[Ru+4] [Ruthenium Red, ruthenium red]
- inhibition of warmth-activated dTRPA1 currents (dTRPA1 [5]): inhibited
- inhibition of warmth-activated agTRPA1 currents (agTRPA1 [6]): inhibited
- inhibition of electrophile-evoked dTRPA1 currents (dTRPA1 [3]; 100 μM RR): inhibited

Compound: C=CC=O [acrolein]
- activation of wild-type dTRPA1 channel currents (dTRPA1 [3]): robustly activated
- toxicity and mutagenicity to the fruit fly (Drosophila melanogaster): toxic and mutagenic

Compound: Cn1c(=O)c2c(ncn2C)n(C)c1=O [caffeine]
- inhibition of the PER, dTrpA1 mutants versus controls (D. melanogaster flies [1]; caffeine-mediated): indistinguishable

Compound: O=CC=Cc1ccccc1 [cinnamaldehyde]
- activation of wild-type dTRPA1 channel currents (dTRPA1 [3]): robustly activated
- response of control motor neurons ([7]; genetic controls without dTRPA1): unresponsive
- activation of motor neurons expressing dTRPA1 (EJPs in target muscles) ([7]; ok371-Gal4 driven dTRPA1, 3rd instar larvae): robustly activated
